Key:
[1] = target: T1, Transient receptor potential cation channel subfamily V member 1 (Homo sapiens, UniProt Q8NER1); assay: Agonist activity at human TRPV1 overexpressed in HEK293 cells incubated for 1 hr by Fluo-4 AM dye based microscopic analysis; type: cell-based
[2] = Toxicity in Kunming mouse assessed as decrease in core body temperature at 50 mg/kg measured after 15 mins; type: organism-based; conditions: in vivo, 0.25 h
[3] = Toxicity in Kunming mouse assessed as decrease in core body temperature at 50 mg/kg measured upto hrs; type: organism-based; conditions: in vivo
[4] = target: T1, Transient receptor potential cation channel subfamily V member 1; assay: Binding affinity to human TRPV1 assessed as dissociation constant by SPR analysis

T1 sequence (Q8NER1 whole entry): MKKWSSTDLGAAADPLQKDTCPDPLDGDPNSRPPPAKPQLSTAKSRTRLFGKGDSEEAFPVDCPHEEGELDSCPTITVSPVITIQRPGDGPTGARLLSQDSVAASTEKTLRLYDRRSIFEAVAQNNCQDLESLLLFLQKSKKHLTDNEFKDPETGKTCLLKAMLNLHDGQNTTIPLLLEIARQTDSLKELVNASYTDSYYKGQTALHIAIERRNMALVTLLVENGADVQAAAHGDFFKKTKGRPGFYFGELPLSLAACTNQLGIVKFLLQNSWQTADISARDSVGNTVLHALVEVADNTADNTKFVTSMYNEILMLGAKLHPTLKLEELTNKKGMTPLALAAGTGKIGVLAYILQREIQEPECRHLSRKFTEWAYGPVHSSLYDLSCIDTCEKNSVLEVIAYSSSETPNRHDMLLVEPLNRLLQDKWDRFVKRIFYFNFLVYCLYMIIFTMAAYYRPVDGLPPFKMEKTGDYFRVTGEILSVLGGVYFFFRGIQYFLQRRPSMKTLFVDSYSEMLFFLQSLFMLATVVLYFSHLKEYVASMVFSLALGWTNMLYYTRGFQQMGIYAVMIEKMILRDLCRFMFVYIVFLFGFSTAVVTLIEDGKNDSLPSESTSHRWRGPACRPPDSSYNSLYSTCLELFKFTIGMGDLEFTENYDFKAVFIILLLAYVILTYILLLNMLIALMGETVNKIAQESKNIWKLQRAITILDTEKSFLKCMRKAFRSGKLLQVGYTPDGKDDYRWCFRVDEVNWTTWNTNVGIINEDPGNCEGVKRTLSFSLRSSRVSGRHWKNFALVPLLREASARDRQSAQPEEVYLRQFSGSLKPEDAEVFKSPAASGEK

| EC50 [1] [µM] | Compound | other results |
| --- | --- | --- |
| 71.2 | CCCCCc1cc(O)c(NC(=O)c2ccc(=O)oc2)c(O)c1 |  |
| 39.8 | CCCCCc1cc(O)c(NS(=O)(=O)c2cc(F)cc(F)c2)c(O)c1 |  |
|  | COc1ccc(COC(=O)CCc2cc(O)c(NS(=O)(=O)c3cc(F)cc(F)c3)c(O)c2)cc1OC | Activity [2]: Toxic |
| 40.5 | CCCCCc1cc(O)c(NC(=O)Nc2cccc3ncccc23)c(O)c1 |  |
| 4.42 | CCCCCc1cc(O)c(NS(=O)(=O)c2ccc(-c3ccccc3)cc2)c(O)c1 |  |
|  | COc1cc(COC(=O)CCc2cc(O)c(NS(=O)(=O)c3cc(F)cc(F)c3)c(O)c2)ccc1O | Activity [3]: Non-Toxic |
| 10.4 | CCCCCc1cc(O)c(NS(=O)(=O)c2cccc(C(F)(F)F)c2)c(O)c1 |  |
| 36.4 | CCCCCc1cc(O)c(NS(=O)(=O)c2cccc3cccnc23)c(O)c1 |  |

| Compound | EC50 [1] [µM] | other results |
| --- | --- | --- |
| C=C(C)[C@@H]1CCC(C)=C[C@H]1c1c(O)cc(CCCCC)cc1O [CANNABIDIOL] | 38.5 | Activity [3]: Non-Toxic; Kd [4]: 110 µM |

— ChEMBL document CHEMBL5325459, “Design, synthesis, and analgesia evaluation of novel Transient Receptor Potential Vanilloid 1 (TRPV1) agonists modified from Cannabidiol (CBD)” (Bioorg Med Chem, 2023)
